Measurements taken from patent publication EP4667464A1 (Cyrus Therapeutics Inc., priority 2023, dated 2024).
pIC50: −log10 of the molar value. Where two headings read alike, the source gives them in different places.

Columns and labels:
[1] = target: T1, KRAS G12C::SOS1 (Homo sapiens, UniProt Q07889); assay: KRAS G12C::SOS1 protein-protein interaction (PPI) inhibition assay (HTRF); assay type: binding
T1 construct: purchased CISBIO 64KRASG12PEH
T1 sequence (Q07889 1-1333): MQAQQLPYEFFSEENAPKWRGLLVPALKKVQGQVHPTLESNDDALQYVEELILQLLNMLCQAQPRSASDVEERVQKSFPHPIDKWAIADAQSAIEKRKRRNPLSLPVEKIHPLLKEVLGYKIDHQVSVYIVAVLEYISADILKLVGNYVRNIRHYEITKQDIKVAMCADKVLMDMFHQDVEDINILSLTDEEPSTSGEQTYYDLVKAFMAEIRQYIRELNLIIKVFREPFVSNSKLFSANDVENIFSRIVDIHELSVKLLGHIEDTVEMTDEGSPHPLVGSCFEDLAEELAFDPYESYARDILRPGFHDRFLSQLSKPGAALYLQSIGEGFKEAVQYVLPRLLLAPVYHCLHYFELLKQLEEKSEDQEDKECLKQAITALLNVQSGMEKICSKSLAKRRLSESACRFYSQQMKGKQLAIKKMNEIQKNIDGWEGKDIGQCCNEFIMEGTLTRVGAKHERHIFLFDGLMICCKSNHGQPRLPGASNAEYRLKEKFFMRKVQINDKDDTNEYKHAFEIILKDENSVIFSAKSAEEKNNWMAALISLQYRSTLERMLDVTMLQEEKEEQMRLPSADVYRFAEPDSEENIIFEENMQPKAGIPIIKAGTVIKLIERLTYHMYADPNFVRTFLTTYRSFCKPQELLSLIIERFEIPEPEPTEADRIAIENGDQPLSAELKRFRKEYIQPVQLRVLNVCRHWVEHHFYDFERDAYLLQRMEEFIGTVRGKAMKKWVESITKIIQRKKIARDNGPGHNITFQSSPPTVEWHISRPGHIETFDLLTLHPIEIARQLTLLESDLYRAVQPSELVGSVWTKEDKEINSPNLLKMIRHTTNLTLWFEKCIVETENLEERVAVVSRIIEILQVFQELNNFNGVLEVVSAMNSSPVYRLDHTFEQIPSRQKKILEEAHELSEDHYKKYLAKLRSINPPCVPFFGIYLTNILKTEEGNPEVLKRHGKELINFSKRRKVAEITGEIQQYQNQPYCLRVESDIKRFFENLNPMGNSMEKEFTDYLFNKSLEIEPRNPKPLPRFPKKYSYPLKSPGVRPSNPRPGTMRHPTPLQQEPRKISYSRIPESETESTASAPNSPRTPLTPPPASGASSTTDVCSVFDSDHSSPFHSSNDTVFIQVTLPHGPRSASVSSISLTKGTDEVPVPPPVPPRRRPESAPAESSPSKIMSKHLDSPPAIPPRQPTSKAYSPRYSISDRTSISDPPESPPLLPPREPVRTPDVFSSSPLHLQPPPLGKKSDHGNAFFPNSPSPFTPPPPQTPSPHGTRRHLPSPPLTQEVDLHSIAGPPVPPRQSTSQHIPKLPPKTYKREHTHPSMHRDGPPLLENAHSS
Summary of the method: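 Compounds, at eight 3-fold dilutions from 3 µM, were mixed with GTP-loaded Tag1-KRAS G12C, Tag2-SOS1 and a terbium-cryptate donor plus XL665 acceptor antibody pair. After 2 h at room temperature, time-resolved FRET reported the KRAS–SOS1 interaction.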

[2] = system: lung cancer cell line NCI-H358 having the KRAS G12C variant; assay: Cancer cell growth inhibition, 3D spheroids (CellTiter-Glo 3D); assay type: cell-based; settings: Homo sapiens, NCI-H358, 120 h, read-out: H358 cell viability
Experimental: Thereafter, the plate with the cells cultured was adapted to room temperature for 10 minutes, and then 50 µL of CellTiter-Glo® 3D Cell Viability Assay (PROMEGA, G9683) solution was dispensed, and reacted on a horizontal stirrer at a speed of 300 RPM for 30 minutes to induce the cell lysis. […] Thereafter, based on the measured values, the degree of cell growth in the well treated with each compound was calculated when the final cell density value of the well not treated with the test substance was set to 100%.

[3] = target: T2, SOS1 (Homo sapiens, UniProt Q07889); assay: SOS-catalyzed nucleotide exchange assay (HTRF, SOS1-mediated GTP loading of KRAS G12D); assay type: biochemical
T2 construct: HIS-SOS1cat (160 nM; Cytoskeleton, US); His (N); purchased Cytoskeleton
T2 sequence (Q07889 564-1049 limits assumed): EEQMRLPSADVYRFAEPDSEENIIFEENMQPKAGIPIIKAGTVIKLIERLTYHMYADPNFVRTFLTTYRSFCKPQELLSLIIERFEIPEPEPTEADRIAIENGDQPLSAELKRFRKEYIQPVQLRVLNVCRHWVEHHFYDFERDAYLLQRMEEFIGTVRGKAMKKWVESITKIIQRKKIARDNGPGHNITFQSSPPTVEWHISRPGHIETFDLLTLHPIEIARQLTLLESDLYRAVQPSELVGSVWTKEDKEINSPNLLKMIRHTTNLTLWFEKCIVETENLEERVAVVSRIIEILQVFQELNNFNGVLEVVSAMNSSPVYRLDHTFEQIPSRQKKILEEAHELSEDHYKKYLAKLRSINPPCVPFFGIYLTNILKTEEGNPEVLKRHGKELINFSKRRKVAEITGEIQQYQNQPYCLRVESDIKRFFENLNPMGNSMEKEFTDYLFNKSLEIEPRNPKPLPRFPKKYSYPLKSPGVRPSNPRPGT

[4] = 8 concentrations from 3 µM, three replicates, read-out: KRAS G12C::SOS1 PPI
[5] = 3D spheroids, 0.002-10 µM, 5 days
[6] = GST-KRAS G12D, HIS-SOS1cat, compound 128 pM to 10 µM, read-out: SOS-catalyzed nucleotide exchange assay

SMILES	pIC50 [1, 4]	pIC50 [2, 5]	pIC50 [3, 6]	pIC50 [1]	pIC50 [3]	pIC50 [2]
CC(=O)c1cc(C(=O)N[C@H](C)c2cccc(C(F)(F)F)c2F)nn(-c2cncc(-c3cnnn3C)c2)c1=O [Example 1-62, N-{(R)-1-[2-fluoro-3-(trifluoromethyl)phenyl]ethyl}-5-acetyl-1-[5-(1-methyl-1H-1,2,3-triazol-5-yl)-3-pyridyl]-6-oxo-1,6-dihydropyridazine-3-carboxamide]	> 7.30	> 6.00	6.82 to 7.30	–	–	–
C[C@@H](NC(=O)c1cc(-c2ccccc2)c(=O)n(-c2cncc(-c3cnnn3C)c2)n1)c1cccc(C(F)(F)F)c1F [Example 1-63, N-{(R)-1-[2-fluoro-3-(trifluoromethyl)phenyl]ethyl}-1-[5-(1-methyl-1H-1,2,3-triazol-5-yl)-3-pyridyl]-6-oxo-5-phenyl-1,6-dihydropyridazine-3-carboxamide]	6.82 to 7.30	> 6.00	6.82 to 7.30	–	–	–
C[C@@H](NC(=O)c1cc(C2=CCCCC2)c(=O)n(-c2cncc(-c3cnnn3C)c2)n1)c1cccc(C(F)(F)F)c1F [Example 1-64, N-{(R)-1-[2-fluoro-3-(trifluoromethyl)phenyl]ethyl}-5-(1-cyclohexen-1-yl)-1-[5-(1-methyl-1H-1,2,3-triazol-5-yl)-3-pyridyl]-6-oxo-1,6-dihydropyridazine-3-carboxamide]	< 6.82	5.52 to 6.00	< 6.82	–	–	–
C[C@@H](NC(=O)c1ccc(=O)n(-c2cc(-c3cnnn3C3CC3)cnc2F)c1)c1cccc(C(F)(F)F)c1F [Example 1-67, (R)-5'-(1-cyclopropyl-1H-1,2,3-triazol-5-yl)-2'-fluoro-N-(1-(2-fluoro-3-(trifluoromethyl)phenyl)ethyl)-2-oxo-2H-[1,3'-bipyridine]-5-carboxamide]	6.82 to 7.30	> 6.00	> 7.30	–	–	–
C[C@@H](NC(=O)c1ccc(=O)n(-c2cncc(-c3cnnn3C)c2)n1)c1cc(N)cc(C(F)F)c1 [Example 2, N-[(1R)-1-[3-amino-5-(difluoromethyl)phenyl]ethyl]-1-[5-(3-methyltriazol-4-yl)-3-pyridyl]-6-oxo-pyridazine-3-carboxamide]	–	> 6.00	–	6.82 to 7.30	6.82 to 7.30	–
C[C@@H](NC(=O)c1ccc(=O)n(-c2cnnc(-c3cnnn3C)c2)n1)c1cccc(C(F)(F)F)c1F [Example 4, N-[(1R)-1-[2-fluoro-3-(trifluoromethyl)phenyl]ethyl]-1-[6-(3-methyltriazol-4-yl)pyridazin-4-yl]-6-oxo-pyridazine-3-carboxamide]	–	–	–	< 6.82	< 6.82	< 5.52
C[C@@H](NC(=O)c1cc(CO)c(=O)n(-c2cncc(-c3cnnn3C3CC3)c2)n1)c1cccc(C(F)(F)F)c1F [Example 6-3]	–	–	–	> 7.30	> 7.30	> 6.00

More lines, main results first:

pIC50 [1, 4]	pIC50 [2, 5]	pIC50 [3, 6]	SMILES	pIC50 [1]	pIC50 [3]	pIC50 [2]
> 7.30	> 6.00	> 7.30	C[C@@H](NC(=O)c1ccc(=O)n(-c2cncc(-c3cnnn3C)c2)n1)c1cc(N)cc(C(F)(F)F)c1F [Example 2-1, N-[(1R)-1-[5-amino-2-fluoro-3-(trifluoromethyl)phenyl]ethyl]-1-[5-(3-methyltriazol-4-yl)-3-pyridyl]-6-oxo-pyridazine-3-carboxamide]	–	–	–
> 7.30	> 6.00	> 7.30	Cc1c([C@@H](C)NC(=O)c2ccc(=O)n(-c3cncc(-c4ccnn4C)c3)n2)cc(N)cc1C(F)(F)F [Example 2-4, N-[(1R)-1-[5-amino-2-methyl-3-(trifluoromethyl)phenyl]ethyl]-1-[5-(2-methylpyrazol-3-yl)-3-pyridyl]-6-oxo-pyridazine-3-carboxamide]	–	–	–
> 7.30	> 6.00	> 7.30	Cc1cc(C(=O)N[C@H](C)c2cc(N)cc(C(F)(F)F)c2F)nn(-c2cncc(-c3cnnn3C)c2)c1=O [Example 2-5, N-[(1R)-1-[5-amino-2-fluoro-3-(trifluoromethyl)phenyl]ethyl]-5-methyl-1-[5-(3-methyltriazol-4-yl)-3-pyridyl]-6-oxo-pyridazine-3-carboxamide]	–	–	–
> 7.30	> 6.00	> 7.30	Cc1c([C@@H](C)NC(=O)c2cc(C)c(=O)n(-c3cncc(-c4cnnn4C)c3)n2)cc(N)cc1C(F)(F)F [Example 2-6, N-[(1R)-1-[5-amino-2-methyl-3-(trifluoromethyl)phenyl]ethyl]-5-methyl-1-[5-(3-methyltriazol-4-yl)-3-pyridyl]-6-oxo-pyridazine-3-carboxamide]	–	–	–
> 7.30	< 5.52	> 7.30	Cc1cc(C(=O)N[C@H](C)c2cc(N)cc(C(F)F)c2)nn(-c2cncc(-c3cnnn3C)c2)c1=O [Example 2-7, N-[(1R)-1-[3-amino-5-(difluoromethyl)phenyl]ethyl]-5-methyl-1-[5-(3-methyltriazol-4-yl)-3-pyridyl]-6-oxo-pyridazine-3-carboxamide]	–	–	–
6.82 to 7.30	> 6.00	6.82 to 7.30	C[C@@H](NC(=O)c1cc(C#N)c(=O)n(-c2cncc(-c3cnnn3C)c2)n1)c1cccc(C(F)(F)F)c1F [Example 3-2, 5-cyano-N-{(1R)-1-[2-fluoro-3-(trifluoromethyl)phenyl]ethyl}-1-[5-(1-methyl-1H-1,2,3-triazol-5-yl)-3-pyridyl]-6-oxo-1,6-dihydropyridazine-3-carboxamide]	–	–	–
6.82 to 7.30	> 6.00	> 7.30	CC(C)n1nncc1-c1cncc(-n2nc(C(=O)N[C@H](C)c3cccc(C(F)(F)F)c3F)cc(CO)c2=O)c1 [Example 6-2, N-{(1R)-1-[2-fluoro-3-(trifluoromethyl)phenyl]ethyl}-1-[5-(1-isopropyl-1H-1,2,3-triazol-5-yl)-3-pyridyl]-5-(hydroxymethyl)-6-oxo-1,6-dihydropyridazine-3-carboxamide]	–	–	–
6.82 to 7.30	> 6.00	> 7.30	CCn1nncc1-c1cncc(-n2nc(C(=O)N[C@H](C)c3cccc(C(F)(F)F)c3F)cc(CO)c2=O)c1 [Example 6-4, N-{ (R)-1-[2-fluoro-3-(trifluoromethyl)phenyl]ethyl}-1-[5-(1-ethyl-1H-1,2,3-triazol-5-yl)-3-pyridyl]-5-(hydroxymethyl)-6-oxo-1,6-dihydropyridazine-3-carboxamide]	–	–	–
